Assay results from ChEMBL document CHEMBL1201862, “PubChem BioAssay data set” (2004).
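Protocol summary: plate cells (96-well), add compound at 5 concentrations, incubate 48 h, interpolate endpoints linearly. GI50 is the concentration that inhibits growth by half.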 Calls of active or inactive are those of the source. Cut-off read from the data, not from the text of the source: active = GI50 up to about 1.1 µM and inactive = higher.

Key:
Experiment in all cases: NCI-60 cell line screen, 48 h
[1] = test system: IGROV-1
[2] = test system: NCI-H460
[3] = test system: EKVX
[4] = test system: PC-3
[5] = test system: NCI-H23
[6] = test system: UO-31
[7] = test system: SNB-19
[8] = test system: UACC-257
[9] = test system: U-251
[10] = test system: RXF 393
[11] = test system: Malme-3M
[12] = test system: UACC-62
[13] = test system: OVCAR-4
[14] = test system: SF-295
[15] = test system: SF-268
[16] = test system: 786-0
[17] = test system: HCC 2998
[18] = test system: CAKI-1
[19] = test system: OVCAR-8
[20] = test system: COLO 205
[21] = test system: BT-549
[22] = test system: M14
[23] = test system: CCRF-CEM
[24] = test system: SF-539
[25] = test system: NCI-H226
[26] = test system: SR
[27] = test system: SN12C
[28] = test system: HOP-62
[29] = test system: HL-60
[30] = test system: KM12
[31] = test system: A549
[32] = test system: SW-620
[33] = test system: TK-10
[34] = test system: MOLT-4
[35] = test system: NCI-H522
[36] = test system: A498
[37] = test system: ACHN
[38] = test system: Hs-578T
[39] = test system: DU-145
[40] = test system: OVCAR-5
[41] = test system: MDA-N
[42] = test system: SK-OV-3
[43] = test system: MDA-MB-435
[44] = test system: MDA-MB-231
[45] = test system: MCF7
[46] = test system: HCT-116
[47] = test system: HT-29
[48] = test system: K562
[49] = test system: T47D
[50] = test system: HOP-92
[51] = test system: OVCAR-3
[52] = test system: SK-MEL-5
[53] = test system: SNB-75
[54] = test system: SK-MEL-28
[55] = test system: SK-MEL-2
[56] = test system: LOX IMVI
[57] = test system: RPMI-8226
[58] = test system: NCI/ADR-RES
[59] = test system: HCT-15

CC1=N[C@](C)(C2CC3C=CC2C3=O)COC1=O (stereo partly specified)
GI50 [1]: > 100 µM (inactive)
GI50 [2]: > 100 µM (inactive)
GI50 [3]: > 100 µM (inactive)
GI50 [4]: > 100 µM (inactive)
GI50 [5]: > 100 µM (inactive)
GI50 [6]: > 100 µM (inactive)
GI50 [7]: > 100 µM (inactive)
GI50 [8]: > 100 µM (inactive)
GI50 [9]: > 100 µM (inactive)
GI50 [10]: > 100 µM (inactive)
GI50 [11]: > 100 µM (inactive)
GI50 [12]: > 100 µM (inactive)
GI50 [13]: > 100 µM (inactive)
GI50 [14]: > 100 µM (inactive)
GI50 [15]: > 100 µM (inactive)
GI50 [16]: > 100 µM (inactive)
GI50 [17]: > 100 µM (inactive)
GI50 [18]: > 100 µM (inactive)
GI50 [19]: > 100 µM (inactive)
GI50 [20]: > 100 µM (inactive)
GI50 [21]: > 100 µM (inactive)
GI50 [22]: > 100 µM (inactive)
GI50 [23]: > 100 µM (inactive)
GI50 [24]: > 100 µM (inactive)
GI50 [25]: > 100 µM (inactive)
GI50 [26]: > 100 µM (inactive)
GI50 [27]: > 100 µM (inactive)
GI50 [28]: > 100 µM (inactive)
GI50 [29]: > 100 µM (inactive)
GI50 [30]: > 100 µM (inactive)
GI50 [31]: > 100 µM (inactive)
GI50 [32]: > 100 µM (inactive)
GI50 [33]: > 100 µM (inactive)
GI50 [34]: > 100 µM (inactive)
GI50 [35]: > 100 µM (inactive)
GI50 [36]: > 100 µM (inactive)
GI50 [37]: > 100 µM (inactive)
GI50 [38]: > 100 µM (inactive)
GI50 [39]: > 100 µM (inactive)
GI50 [40]: > 100 µM (inactive)
GI50 [41]: > 100 µM (inactive)
GI50 [42]: > 100 µM (inactive)
GI50 [43]: > 100 µM (inactive)
GI50 [44]: > 100 µM (inactive)
GI50 [45]: > 100 µM (inactive)
GI50 [46]: > 100 µM (inactive)
GI50 [47]: > 100 µM (inactive)
GI50 [48]: > 100 µM (inactive)
GI50 [49]: > 100 µM (inactive)
GI50 [50]: > 100 µM (inactive)
GI50 [51]: > 100 µM (inactive)
GI50 [52]: > 100 µM (inactive)
GI50 [53]: > 100 µM (inactive)
GI50 [54]: > 100 µM (inactive)

CC(C)[C@@H]1CC[C@@H](C)C[C@H]1OC(=O)c1c2n(c3ccccc13)C[C@H]1OC(C)(C)O[C@@H]21
GI50 [1]: 13 µM (inactive)
GI50 [3]: 6.81 µM (inactive)
GI50 [4]: 5.71 µM (inactive)
GI50 [5]: 5.77 µM (inactive)
GI50 [6]: 96.2 µM (inactive)
GI50 [8]: 6.95 µM (inactive)
GI50 [9]: 5.14 µM (inactive)
GI50 [10]: 13.7 µM (inactive)
GI50 [11]: 7.64 µM (inactive)
GI50 [12]: 18 µM (inactive)
GI50 [55]: > 100 µM (inactive)
GI50 [13]: 20.9 µM (inactive)
GI50 [14]: 6.46 µM (inactive)
GI50 [15]: 19.2 µM (inactive)
GI50 [56]: 6.18 µM (inactive)
GI50 [16]: 16.5 µM (inactive)
GI50 [17]: 26.3 µM (inactive)
GI50 [18]: 26.9 µM (inactive)
GI50 [19]: 20.9 µM (inactive)
GI50 [57]: 3.61 µM (inactive)
GI50 [20]: 72.4 µM (inactive)
GI50 [21]: 61.8 µM (inactive)
GI50 [22]: 22.9 µM (inactive)
GI50 [23]: 4.22 µM (inactive)
GI50 [25]: 22.3 µM (inactive)
GI50 [26]: 3.23 µM (inactive)
GI50 [27]: 24.9 µM (inactive)
GI50 [28]: 27.5 µM (inactive)
GI50 [29]: 5.56 µM (inactive)
GI50 [58]: 13.2 µM (inactive)
GI50 [30]: 9.08 µM (inactive)
GI50 [31]: 18.9 µM (inactive)
GI50 [32]: 16.6 µM (inactive)
GI50 [33]: 18.5 µM (inactive)
GI50 [34]: 3.87 µM (inactive)
GI50 [59]: 24.7 µM
GI50 [37]: 8.22 µM (inactive)
GI50 [38]: 16.7 µM (inactive)
GI50 [39]: 20 µM (inactive)
GI50 [40]: > 100 µM (inactive)
GI50 [41]: 19.7 µM (inactive)
GI50 [42]: 21.3 µM (inactive)
GI50 [43]: 30.5 µM (inactive)
GI50 [44]: 23 µM (inactive)
GI50 [45]: 14.1 µM (inactive)
GI50 [46]: 4.36 µM (inactive)
GI50 [47]: 8.2 µM (inactive)
GI50 [48]: 4.53 µM (inactive)
GI50 [49]: 15.2 µM (inactive)
GI50 [51]: 18.2 µM (inactive)
GI50 [52]: 5.5 µM (inactive)
GI50 [54]: 46.7 µM (inactive)

O=C1CC=C2C3CC4N(CCC45c4ccccc4N1C25)C/C3=C\CO (stereo unspecified)
GI50 [1]: > 100 µM (inactive)
GI50 [2]: > 100 µM (inactive)
GI50 [3]: > 100 µM (inactive)
GI50 [4]: > 100 µM (inactive)
GI50 [5]: > 100 µM (inactive)
GI50 [6]: > 100 µM (inactive)
GI50 [7]: > 100 µM (inactive)
GI50 [8]: > 100 µM (inactive)
GI50 [9]: > 100 µM (inactive)
GI50 [11]: > 100 µM (inactive)
GI50 [12]: > 100 µM (inactive)
GI50 [55]: > 100 µM (inactive)
GI50 [13]: > 100 µM (inactive)
GI50 [14]: > 100 µM (inactive)
GI50 [15]: > 100 µM (inactive)
GI50 [56]: > 100 µM (inactive)
GI50 [16]: > 100 µM (inactive)
GI50 [17]: > 100 µM (inactive)
GI50 [18]: > 100 µM (inactive)
GI50 [19]: > 100 µM (inactive)
GI50 [57]: > 100 µM (inactive)
GI50 [20]: > 100 µM (inactive)
GI50 [21]: > 100 µM (inactive)
GI50 [23]: > 100 µM (inactive)
GI50 [24]: > 100 µM (inactive)
GI50 [25]: > 100 µM (inactive)
GI50 [27]: > 100 µM (inactive)
GI50 [29]: > 100 µM (inactive)
GI50 [58]: > 100 µM (inactive)
GI50 [30]: > 100 µM (inactive)
GI50 [31]: > 100 µM (inactive)
GI50 [32]: > 100 µM (inactive)
GI50 [33]: > 100 µM (inactive)
GI50 [34]: > 100 µM (inactive)
GI50 [35]: > 100 µM (inactive)
GI50 [59]: > 100 µM
GI50 [36]: > 100 µM (inactive)
GI50 [37]: > 100 µM (inactive)
GI50 [38]: > 100 µM (inactive)
GI50 [39]: > 100 µM (inactive)
GI50 [40]: > 100 µM (inactive)
GI50 [41]: > 100 µM (inactive)
GI50 [42]: > 100 µM (inactive)
GI50 [43]: > 100 µM (inactive)
GI50 [44]: > 100 µM (inactive)
GI50 [45]: > 100 µM (inactive)
GI50 [46]: > 100 µM (inactive)
GI50 [47]: > 100 µM (inactive)
GI50 [48]: > 100 µM (inactive)
GI50 [49]: > 100 µM (inactive)
GI50 [50]: > 100 µM (inactive)
GI50 [51]: > 100 µM (inactive)
GI50 [52]: > 100 µM (inactive)
GI50 [53]: > 100 µM (inactive)
GI50 [54]: > 100 µM (inactive)
